How the values were obtained:
PKC epsilon = target: T1, PKC epsilon (Homo sapiens, UniProt Q02156); test: Biochemical assay for PKC epsilon (fluorescence polarization, Protein Kinase C Assay Kit, Red); conditions: Table 2, compounds of Formula XIII; read-out: IC50 μM PKCε
T1 construct: purchased Invitrogen P2282
T1 sequence (Q02156 1-737): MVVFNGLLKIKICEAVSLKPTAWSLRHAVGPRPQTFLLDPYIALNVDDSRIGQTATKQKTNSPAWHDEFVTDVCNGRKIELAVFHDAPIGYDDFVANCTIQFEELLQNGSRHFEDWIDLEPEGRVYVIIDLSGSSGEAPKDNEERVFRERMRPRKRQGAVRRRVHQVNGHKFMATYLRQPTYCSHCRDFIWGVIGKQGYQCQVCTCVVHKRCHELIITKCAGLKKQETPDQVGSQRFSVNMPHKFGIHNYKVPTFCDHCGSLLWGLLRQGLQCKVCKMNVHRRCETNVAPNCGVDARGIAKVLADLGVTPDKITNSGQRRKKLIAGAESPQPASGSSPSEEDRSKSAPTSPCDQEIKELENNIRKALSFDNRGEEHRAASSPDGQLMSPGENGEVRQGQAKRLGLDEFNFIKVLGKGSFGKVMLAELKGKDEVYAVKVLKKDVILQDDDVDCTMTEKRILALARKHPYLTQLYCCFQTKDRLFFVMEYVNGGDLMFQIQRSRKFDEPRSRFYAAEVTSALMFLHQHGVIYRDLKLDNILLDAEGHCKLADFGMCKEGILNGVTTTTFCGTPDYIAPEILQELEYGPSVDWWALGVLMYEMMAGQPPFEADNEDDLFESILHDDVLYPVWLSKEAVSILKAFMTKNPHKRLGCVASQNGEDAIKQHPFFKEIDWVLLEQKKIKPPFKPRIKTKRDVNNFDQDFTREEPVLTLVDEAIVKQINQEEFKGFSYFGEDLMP
Method in brief: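 Read-out was fluorescence-polarization competition between phosphorylated substrate and a rhodamine PKC tracer for an anti-phosphoserine antibody, added with EDTA stop after an 80 min room-temperature kinase reaction with ATP and protein substrate (Mg2+/Ca2+ buffer). Enzyme (10 ng/ml final) was preincubated with compound for 30 min.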

human ROCKα/ROCKII mix = target: T2, human ROCKα/ROCKII mix (Homo sapiens, UniProt O75116); test: Biochemical assay for ROCK (fluorescence polarization, ROCK IMAP Kit); conditions: Table 2, compounds of Formula XIII
T2 construct: purchased Upstate Biotechnology 14-451
T2 sequence (O75116 11-552 limits assumed): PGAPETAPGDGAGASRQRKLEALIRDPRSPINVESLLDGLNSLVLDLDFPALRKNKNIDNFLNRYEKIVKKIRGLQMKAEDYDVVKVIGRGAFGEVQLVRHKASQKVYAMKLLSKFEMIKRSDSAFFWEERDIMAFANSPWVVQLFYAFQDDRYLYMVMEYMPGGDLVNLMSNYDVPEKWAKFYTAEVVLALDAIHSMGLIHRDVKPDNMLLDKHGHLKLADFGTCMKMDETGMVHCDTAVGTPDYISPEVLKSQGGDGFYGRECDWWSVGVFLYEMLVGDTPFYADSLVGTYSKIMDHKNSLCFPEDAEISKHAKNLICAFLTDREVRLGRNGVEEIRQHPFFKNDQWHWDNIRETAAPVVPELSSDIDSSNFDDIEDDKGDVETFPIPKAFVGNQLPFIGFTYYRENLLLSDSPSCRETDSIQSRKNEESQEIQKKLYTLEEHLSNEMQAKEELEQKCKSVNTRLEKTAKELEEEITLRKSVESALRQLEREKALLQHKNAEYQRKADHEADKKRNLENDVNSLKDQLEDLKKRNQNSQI

| IC50 (PKC epsilon) | IC50 (human ROCKα/ROCKII mix) | SMILES |
| --- | --- | --- |
| 0.5 to 5 µM | 0.05 to 0.5 µM | NC(CNC(=O)CCC1CCCCC1)c1ccc(C(=O)Nc2ccncc2)cc1 (centres unmarked) [Compound 52, 4-[1-Amino-2-(3-cyclohexyl-propionylamino)-ethyl]-N-pyridin-4-yl-benzamide] |
| 0.5 to 5 µM | 0.05 to 0.5 µM | N#CCC(=O)NCC(N)c1ccc(C(=O)Nc2ccncc2)cc1 (centres unmarked) [Compound 54, 4-[1-Amino-2-(2-cyano-acetylamino)-ethyl]-N-pyridin-4-yl-benzamide] |
| 5 to 50 µM | 0.5 to 5 µM | COCCC(=O)NCC(N)c1ccc(C(=O)Nc2ccncc2)cc1 (centres unmarked) [Compound 58, 4-[1-Amino-2-(3-methoxy-propionylamino)-ethyl]-N-pyridin-4-yl-benzamide] |
| 0.5 to 5 µM | 0.5 to 5 µM | CC(C)=NOC(C)C(=O)NCC(N)c1ccc(C(=O)Nc2ccncc2)cc1 (centres unmarked) [Compound 59, 4-[1-Amino-2-(2-isopropylideneaminooxy-propionylamino)-ethyl]-N-pyridin-4-yl-benzamide] |
| 0.5 to 5 µM | 0.05 to 0.5 µM | CC(=NOCC(=O)NCC(N)c1ccc(C(=O)Nc2ccncc2)cc1)c1ccccc1 (centres unmarked) [Compound 60, 4-{1-Amino-2-[2-(1-phenyl-ethylideneaminooxy)-acetylamino]-ethyl}-N-pyridin-4-yl-benzamide] |
| 5 to 50 µM | 0.5 to 5 µM | CCOCC(=O)NCC(N)c1ccc(C(=O)Nc2ccncc2)cc1 (centres unmarked) [Compound 62, 4-[1-amino-2-(2-ethoxy-acetylamino)-ethyl]-N-pyridin-4-yl-benzamide] |
| 5 to 50 µM | 0.5 to 5 µM | NC(CNC(=O)CSc1ncccn1)c1ccc(C(=O)Nc2ccncc2)cc1 (centres unmarked) [Compound 64, 4-{1-amino-2-[2-(pyrimidin-2-ylsulfanyl)-acetylamino]-ethyl}-N-pyridin-4-yl-benzamide] |
| 5 to 50 µM | 0.5 to 5 µM | COc1ccc(C(=O)NCC(N)c2ccc(C(=O)Nc3ccncc3)cc2)cc1 (centres unmarked) [Compound 74, 4-[1-amino-2-(4-methoxy-benzoylamino)-ethyl]-N-pyridin-4-yl-benzamide] |
| 5 to 50 µM | 0.5 to 5 µM | CCCOc1ccc(C(=O)NCC(N)c2ccc(C(=O)Nc3ccncc3)cc2)cc1 (centres unmarked) [Compound 75, 4-[1-amino-2-(4-propoxy-benzoylamino)-ethyl]-N-pyridin-4-yl-benzamide] |
| 5 to 50 µM | 0.05 to 0.5 µM | NC(CNC(=O)c1ccc2c(c1)OCO2)c1ccc(C(=O)Nc2ccncc2)cc1 (centres unmarked) [Compound 80, Benzo[1,3]dioxole-5-carboxylic acid {2-amino-2-[4-(pyridin-4-ylcarbamoyl)-phenyl]-ethyl}amide] |
| 0.5 to 5 µM | 0.5 to 5 µM | Cc1cccc(C(=O)NCC(N)c2ccc(C(=O)Nc3ccncc3)cc2)c1 (centres unmarked) [Compound 85, 4-[1-amino-2-(3-methyl-benzoylamino)-ethyl]-N-pyridin-4-yl-benzamide] |

More lines, now with the values behind:

| SMILES | IC50 (PKC epsilon) | IC50 (human ROCKα/ROCKII mix) |
| --- | --- | --- |
| NC(CNC(=O)CCC1CCCC1)c1ccc(C(=O)Nc2ccncc2)cc1 (centres unmarked) [Compound 51, 4-[1-Amino-2-(3-cyclopentyl-propionylamino)-ethyl]-N-pyridin-4-yl-benzamide] | 0.5 to 5 µM | 0.05 to 0.5 µM |
| CN(C)CCCC(=O)NCC(N)c1ccc(C(=O)Nc2ccncc2)cc1 (centres unmarked) [Compound 53, 4-[1-Amino-2-(4-dimethylamino-butyrylamino)-ethyl]-N-pyridin-4-yl-benzamide] | 5 to 50 µM | 0.5 to 5 µM |
| NC(CNC(=O)CNC(=O)c1ccccc1)c1ccc(C(=O)Nc2ccncc2)cc1 (centres unmarked) [Compound 55, 4-[1-Amino-2-(2-benzoylamino-acetylamino)-ethyl]-N-pyridin-4-yl-benzamide] | 5 to 50 µM | 0.05 to 0.5 µM |
| NC(CNC(=O)CNC(=O)c1ccco1)c1ccc(C(=O)Nc2ccncc2)cc1 (centres unmarked) [Compound 56, Furan-2-carboxylic acid ({2-amino-2-[4-(pyridin-4-ylcarbamoyl)-phenyl]-ethylcarbamoyl}-methyl)-amide] | 5 to 50 µM | 0.05 to 0.5 µM |
| COCC(=O)NCC(N)c1ccc(C(=O)Nc2ccncc2)cc1 (centres unmarked) [Compound 57, 4-[1-Amino-2-(2-methoxy-acetylamino)-ethyl]-N-pyridin-4-yl-benzamide] | 5 to 50 µM | 0.5 to 5 µM |
| Cc1ccsc1C=NOCC(=O)NCC(N)c1ccc(C(=O)Nc2ccncc2)cc1 (centres unmarked) [Compound 61, 4-{1-Amino-2-[2-(3-methyl-thiophen-2-ylmethyleneaminooxy)-acetylamino]-ethyl}-N-pyridin-4-yl-benzamide] | 5 to 50 µM | 0.5 to 5 µM |
| CCSCC(=O)NCC(N)c1ccc(C(=O)Nc2ccncc2)cc1 (centres unmarked) [Compound 63, 4-[1-amino-2-(2-ethylsulfanyl-acetylamino)-ethyl]-N-pyridin-4-yl-benzamide] | 0.5 to 5 µM | 0.05 to 0.5 µM |
| NC(CNC(=O)C1CCOC1)c1ccc(C(=O)Nc2ccncc2)cc1 (centres unmarked) [Compound 65, Tetrahydro-furan-3-carboxylic acid {2-amino-2-[4-(pyridin-4-ylcarbamoyl)-phenyl]-ethyl}-amide] | 0.5 to 5 µM | 0.5 to 5 µM |
| NC(CNC(=O)C1CCCO1)c1ccc(C(=O)Nc2ccncc2)cc1 (centres unmarked) [Compound 66, Tetrahydro-furan-2-carboxylic acid {2-amino-2-[4-(pyridin-4-ylcarbamoyl)-phenyl]-ethyl}-amide] | 5 to 50 µM | 0.5 to 5 µM |
| NC(CNC(=O)[C@@H]1CCC(=O)N1)c1ccc(C(=O)Nc2ccncc2)cc1 (stereo partly drawn) [Compound 67, 5-Oxo-pyrrolidine-2-(S)-carboxylic acid {2-amino-2-[4-(pyridin-4-ylcarbamoyl)-phenyl]-ethyl}-amide] | 5 to 50 µM | 0.5 to 5 µM |
| NC(CNC(=O)[C@H]1CCC(=O)N1)c1ccc(C(=O)Nc2ccncc2)cc1 (stereo partly drawn) [Compound 68, 5-Oxo-pyrrolidine-2-(R)-carboxylic acid {2-amino-2-[4-(pyridin-4-ylcarbamoyl)-phenyl]-ethyl}-amide] | 5 to 50 µM | 0.05 to 0.5 µM |
| NC(CNC(=O)c1ccc2ccccc2c1)c1ccc(C(=O)Nc2ccncc2)cc1 (centres unmarked) [Compound 70] | 5 to 50 µM | 0.05 to 0.5 µM |
| NC(CNC(=O)c1cccc2ccccc12)c1ccc(C(=O)Nc2ccncc2)cc1 (centres unmarked) [Compound 71] | 0.5 to 5 µM | 0.5 to 5 µM |
| COc1ccccc1C(=O)NCC(N)c1ccc(C(=O)Nc2ccncc2)cc1 (centres unmarked) [Compound 72, 4-[1-amino-2-(2-methoxy-benzoylamino)-ethyl]-N-pyridin-4-yl-benzamide] | 0.5 to 5 µM | 0.5 to 5 µM |
| COc1cccc(C(=O)NCC(N)c2ccc(C(=O)Nc3ccncc3)cc2)c1 (centres unmarked) [Compound 73, 4-[1-amino-2-(3-methoxy-benzoylamino)-ethyl]-N-pyridin-4-yl-benzamide] | 0.5 to 5 µM | 0.5 to 5 µM |
| NC(CNC(=O)c1ccccc1Oc1ccccc1)c1ccc(C(=O)Nc2ccncc2)cc1 (centres unmarked) [Compound 76, 4-[1-amino-2-(2-phenoxy-benzoylamino)-ethyl]-N-pyridin-4-yl-benzamide] | 0.5 to 5 µM | 0.5 to 5 µM |
| NC(CNC(=O)c1cccc(Oc2ccccc2)c1)c1ccc(C(=O)Nc2ccncc2)cc1 (centres unmarked) [Compound 77, 4-[1-amino-2-(3-phenoxy-benzoylamino)-ethyl]-N-pyridin-4-yl-benzamide] | 5 to 50 µM | 0.5 to 5 µM |
| NC(CNC(=O)c1ccc(Oc2ccccc2)cc1)c1ccc(C(=O)Nc2ccncc2)cc1 (centres unmarked) [Compound 78, 4-[1-amino-2-(4-phenoxy-benzoylamino)-ethyl]-N-pyridin-4-yl-benzamide] | 5 to 50 µM | 0.5 to 5 µM |
| COc1cc(OC)cc(C(=O)NCC(N)c2ccc(C(=O)Nc3ccncc3)cc2)c1 (centres unmarked) [Compound 79, 4-[1-amino-2-(3,5-dimethoxy-benzoylamino)-ethyl]-N-pyridin-4-yl-benzamide] | 0.5 to 5 µM | 0.5 to 5 µM |
| CCN(CC)c1ccc(C(=O)NCC(N)c2ccc(C(=O)Nc3ccncc3)cc2)cc1 (centres unmarked) [Compound 81, 4-[1-amino-2-(4-diethylamino-benzoylamino)-ethyl]-N-pyridin-4-yl-benzamide] | 5 to 50 µM | 0.5 to 5 µM |
| NC(CNC(=O)c1ccccc1Nc1ccccc1)c1ccc(C(=O)Nc2ccncc2)cc1 (centres unmarked) [Compound 82, 4-[1-amino-2-(2-phenylamino-benzoylamino)-ethyl]-N-pyridin-4-yl-benzamide] | 0.5 to 5 µM | 0.5 to 5 µM |
| CC(=O)Nc1ccc(C(=O)NCC(N)c2ccc(C(=O)Nc3ccncc3)cc2)cc1 (centres unmarked) [Compound 83, 4-[1-amino-2-(4-acetylamino-benzoylamino)-ethyl]-N-pyridin-4-yl-benzamide] | 5 to 50 µM | 0.5 to 5 µM |
| Cc1ccccc1C(=O)NCC(N)c1ccc(C(=O)Nc2ccncc2)cc1 (centres unmarked) [Compound 84, 4-[1-amino-2-(2-methyl-benzoylamino)-ethyl]-N-pyridin-4-yl-benzamide] | 5 to 50 µM | 0.5 to 5 µM |
